Measurements as given in paper PMC9055924 (RSC Advances, 2020).

Target: T1, TLP-1 (Prunus mume, UniProt A0ABM0NSQ8)
T1 sequence (A0ABM0NSQ8 27-249): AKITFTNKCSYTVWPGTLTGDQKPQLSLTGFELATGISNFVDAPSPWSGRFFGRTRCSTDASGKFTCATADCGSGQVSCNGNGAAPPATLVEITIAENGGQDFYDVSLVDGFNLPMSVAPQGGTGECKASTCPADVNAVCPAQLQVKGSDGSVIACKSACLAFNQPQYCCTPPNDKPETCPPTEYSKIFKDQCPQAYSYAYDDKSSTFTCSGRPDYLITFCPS
Assay: catechol oxidation, absorbance at […] nm
Assay type: biochemical
Details: read-out: Relative activity (%) / 10 (mM)

activity at 10000 µM [%] | Compound
15.6 ± 0.44 | CCCCCCc1ccc(O)cc1O [4-Hexylresorcinol]
83.5 ± 2.24 | NC(=O)CC[C@H](N)C(=O)O [L-Glutamine]
